How the values were obtained:
OVCAR8 = assay: drug sensitivity score (DSS2) on cancer cell count; higher = more sensitive; extreme values may be limits of the assay; settings: 72 h
Outline: (§1)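 Ovarian cancer cells were cultured either alone or directly mixed 1:1 with lung or skin fibroblasts and plated onto 384-well plates acoustically pre-spotted with 528 approved and investigational compounds at 5 concentrations for 72 h of treatment. After fixation, cells were immunostained for CK8/18 with Hoechst and imaged at 10× across 4 fields to count cancer cells. Responses were fitted with 4-parameter logistic curves, and from these fits a drug sensitivity score was derived in Breeze, with screen quality assessed by Z'.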

KURAMOCHI = assay: as above; settings: 72 h
Outline: as §1

[1] = co-cultured fibroblast: BJHTERT
[2] = co-cultured fibroblast: none (monoculture)

SMILES | drug sensitivity score (OVCAR8; [1]) | drug sensitivity score (OVCAR8; co-cultured fibroblast: WI38) | drug sensitivity score (OVCAR8; [2]) | drug sensitivity score (KURAMOCHI; [1]) | drug sensitivity score (KURAMOCHI; co-cultured fibroblast: WI38) | drug sensitivity score (KURAMOCHI; [2])
CO[C@@]12[C@H](COC(N)=O)C3=C(C(=O)C(C)=C(N)C3=O)N1C[C@@H]1N[C@@H]12 [Mitomycin C] | 4.2 DSS | 0.8 DSS | 3.1 DSS | 0 DSS | 0 DSS | 12.4 DSS
COc1cc(NS(C)(=O)=O)ccc1Nc1c2ccccc2nc2ccccc12 [Amsacrine] | 20.1 DSS | 19.2 DSS | 23.8 DSS | 14.4 DSS | 18.8 DSS | 21.8 DSS
Cc1ccc(NC(=O)c2ccc(CN3CC[C@H](N(C)C)C3)c(C(F)(F)F)c2)cc1Nc1nccc(-c2cncnc2)n1 [Bafetinib] | 0 DSS | 0 DSS | 0 DSS | 0.1 DSS | 0 DSS | 0 DSS
CCN(CC)CCCC(C)Nc1c2ccc(Cl)cc2nc2ccc(OC)cc12 (centres undefined) [Mepacrine] | 19.8 DSS | 14.2 DSS | 14.4 DSS | 13.8 DSS | 13.8 DSS | 19.1 DSS
CCC1(c2ccc(N)cc2)CCC(=O)NC1=O (centres undefined) [Aminoglutethimide] | 0 DSS | 0.4 DSS | 0 DSS | 5.8 DSS | 0 DSS | 0 DSS
C[C@@H]1COC(Nc2ccc3ncnc(Nc4ccc(OCc5nccs5)c(Cl)c4)c3c2)=N1 [Varlitinib] | 0 DSS | 2 DSS | 1.4 DSS | 1.5 DSS | 2.1 DSS | 0 DSS
CCCCCCCCCCCCCCCCOP(=O)([O-])OCC[N+](C)(C)C [Miltefosine] | 8.4 DSS | 7.3 DSS | 5.7 DSS | 4.4 DSS | 7.4 DSS | 5 DSS
CO[C@@H](C(=O)N1Cc2[nH]nc(NC(=O)c3ccc(N4CCN(C)CC4)cc3)c2C1)c1ccccc1 [Danusertib] | 15 DSS | 19.2 DSS | 21 DSS | 22.9 DSS | 20.9 DSS | 28.6 DSS
O=C(Nc1cc(Cl)cc2c1[nH]c1cnccc12)c1cccnc1 [PS-1145] | 0 DSS | 0 DSS | 1.8 DSS | 0.6 DSS | 3.2 DSS | 2.1 DSS
C=C1C[C@@H]2CC[C@@]34C[C@H]5O[C@H]6[C@@H](O3)[C@H]3O[C@H](CC[C@@H]3O[C@H]6[C@H]5O4)CC(=O)C[C@@H]3[C@@H](OC)[C@@H](C[C@H](O)CN)O[C@H]3C[C@H]3O[C@@H](CC[C@@H]1O2)C[C@@H](C)C3=C [Eribulin] | 27.5 DSS | 29.9 DSS | 26.6 DSS | 28.8 DSS | 26.9 DSS | 27.5 DSS
CO[C@H]1CC[C@H](N2C(=O)CNc3ncc(-c4ccc(C(C)(C)O)nc4)nc32)CC1 [CC-223] | 5 DSS | 1.6 DSS | 7.6 DSS | 6.8 DSS | 5.7 DSS | 4.7 DSS
CCS(=O)(=O)c1cccc(-c2cc(C(=O)NC3CCN(C)CC3)c(C)c3[nH]c4ncc(C)cc4c23)c1 [TAK-901] | 9.4 DSS | 8.3 DSS | 7.1 DSS | 11.8 DSS | 15 DSS | 13.7 DSS
NS(=O)(=O)NCCNc1nonc1/C(=N/O)Nc1ccc(F)c(Br)c1 [Epacadostat] | 0 DSS | 0 DSS | 0.6 DSS | 0 DSS | 0 DSS | 0 DSS
C[C@@H]1CN(Cc2ccc(F)cc2)[C@@H](C)CN1C(=O)c1cc2c(C(=O)C(=O)N(C)C)cn(C)c2cc1Cl [Talmapimod] | 2.8 DSS | 0 DSS | 1.4 DSS | 1.2 DSS | 0 DSS | 0 DSS
COCC1(CO)C(=O)C2CCN1CC2 (centres undefined) [APR-246] | 0 DSS | 0 DSS | 0 DSS | 0 DSS | 0 DSS | 0 DSS
C[C@]1(c2nc3c(C(N)=O)cccc3[nH]2)CCCN1 [Veliparib] | 5 DSS | 3.1 DSS | 0.5 DSS | 0.4 DSS | 0 DSS | 0 DSS
C=CC(=O)Nc1cccc(Nc2nc(Nc3ccc(OCCOC)cc3)ncc2F)c1 [Spebrutinib] | 0 DSS | 0 DSS | 0 DSS | 0 DSS | 0 DSS | 0 DSS
CCNC(=O)c1noc(-c2cc(C(C)C)c(O)cc2O)c1-c1ccc(CN2CCOCC2)cc1 [Luminespib] | 28.3 DSS | 29.8 DSS | 29.9 DSS | 19.7 DSS | 20.9 DSS | 22.9 DSS
CNc1nc(Nc2cn(C(C)(C)C#N)nc2C)ncc1C(F)(F)F [GNE-0877] | 0 DSS | 1.8 DSS | 0 DSS | 0 DSS | 0 DSS | 0 DSS
COc1cc2nccc(Oc3ccc(NC(=O)NC4CC4)c(Cl)c3)c2cc1C(N)=O [Lenvatinib] | 0 DSS | 0 DSS | 0.7 DSS | 0.2 DSS | 0 DSS | 0 DSS

SMILES | drug sensitivity score (OVCAR8; [1]) | drug sensitivity score (OVCAR8; co-cultured fibroblast: WI38) | drug sensitivity score (OVCAR8; [2]) | drug sensitivity score (KURAMOCHI; [1]) | drug sensitivity score (KURAMOCHI; co-cultured fibroblast: WI38) | drug sensitivity score (KURAMOCHI; [2])
Cc1nc2cccc(N)c2c(=O)n1C1CCC(=O)NC1=O (centres undefined) [CC122] | 0 DSS | 0 DSS | 0 DSS | 0 DSS | 0 DSS | 0 DSS
O=C(O)C1(C(=O)O)CCC1.[NH2-].[NH2-].[Pt+2] [Carboplatin] | 9.4 DSS | 8.6 DSS | 12.3 DSS | 13.3 DSS | 18.1 DSS | 22.9 DSS
CC(C)(O)CNc1nc(Nc2ccnc(C(F)(F)F)c2)nc(-c2cccc(C(F)(F)F)n2)n1 [Enasidenib] | 0 DSS | 0 DSS | 0 DSS | 0.3 DSS | 0 DSS | 0 DSS
CC(C)NC(=O)COc1cccc(-c2nc(Nc3ccc4[nH]ncc4c3)c3ccccc3n2)c1 [KD025] | 5 DSS | 8.3 DSS | 0.3 DSS | 1.2 DSS | 1.3 DSS | 0 DSS
Cn1nnc2c(C(N)=O)ncn2c1=O [Temozolomide] | 0 DSS | 0 DSS | 9.8 DSS | 0 DSS | 2.2 DSS | 9.1 DSS
FC(F)(F)c1ccc(CNc2ccc(Cc3c[nH]c4ncc(Cl)cc34)cn2)cn1 [Pexidartinib] | 0 DSS | 0.1 DSS | 0.7 DSS | 0 DSS | 1.4 DSS | 12.1 DSS
c1cn2cc(-c3ccc4cn[nH]c4c3)nc(Nc3ccc(N4CCOCC4)cc3)c2n1 [Entospletinib] | 1.2 DSS | 0 DSS | 0 DSS | 0 DSS | 1.4 DSS | 0 DSS
CC(C)(C)NC(=O)[C@H]1CC[C@H]2[C@@H]3CC[C@H]4NC(=O)C=C[C@]4(C)[C@H]3CC[C@]12C [Finasteride] | 2.1 DSS | 0 DSS | 0 DSS | 0 DSS | 0 DSS | 0 DSS
COc1c(C)cnc(Cn2cnc3c(Cl)nc(N)nc32)c1C [BIIB021] | 21.5 DSS | 21.8 DSS | 24 DSS | 13.6 DSS | 21.1 DSS | 15.6 DSS
CC(C)C[C@H](NC(=O)[C@@H](COC(C)(C)C)NC(=O)[C@H](Cc1ccc(O)cc1)NC(=O)[C@H](CO)NC(=O)[C@H](Cc1c[nH]c2ccccc12)NC(=O)[C@H](Cc1cnc[nH]1)NC(=O)[C@@H]1CCC(=O)N1)C(=O)N[C@@H](CCCNC(=N)N)C(=O)N1CCC[C@H]1C(=O)NNC(N)=O [Goserelin] | 0 DSS | 0 DSS | 0 DSS | 0 DSS | 0 DSS | 0 DSS
CC1(C)CNc2cc(NC(=O)c3cccnc3NCc3ccncc3)ccc21 [Motesanib] | 0 DSS | 1 DSS | 2 DSS | 0.3 DSS | 0.2 DSS | 0 DSS
CN1CCN(c2cc(C(=O)Nc3ccc4c(c3)-c3c(c(C(N)=O)nn3-c3ccc(F)cc3)CC4)c(Cl)cn2)CC1 [PHA 408] | 0.5 DSS | 8.6 DSS | 4.8 DSS | 5.8 DSS | 1.9 DSS | 1.6 DSS
CC[C@H](C)C(=O)O[C@H]1C[C@H](O)C=C2C=C[C@H](C)[C@H](CC[C@@H](O)C[C@@H](O)CC(=O)O)[C@H]21 [Pravastatin] | 0 DSS | 1.9 DSS | 0 DSS | 0 DSS | 0 DSS | 0 DSS
COc1cccc2c1c(O)c(C(=O)N(C)c1ccc(C(F)(F)F)cc1)c(=O)n2C [Tasquinimod] | 0 DSS | 0 DSS | 0 DSS | 0 DSS | 0 DSS | 0 DSS
CCN(c1cc(-c2ccc(CN3CCOCC3)cc2)cc(C(=O)NCc2c(C)cc(C)[nH]c2=O)c1C)C1CCOCC1 [Tazemetostat] | 0 DSS | 0 DSS | 0 DSS | 0 DSS | 0 DSS | 0 DSS
COc1cc2/c(=N/c3ccc(Br)cc3F)nc[nH]c2cc1OCC1CCN(C)CC1 [Vandetanib] | 0 DSS | 0 DSS | 2.1 DSS | 0 DSS | 2.6 DSS | 10.6 DSS
CC(C)(C)Cn1c(N)nc2ccc(-c3[nH]c(C(C)(C)C)nc3-c3ccc(F)cc3)nc21 [Ralimetinib] | 0 DSS | 0 DSS | 2.5 DSS | 10.8 DSS | 1.7 DSS | 0 DSS
CN(Cc1cnc2nc(N)nc(N)c2n1)c1ccc(C(=O)N[C@@H](CCC(=O)O)C(=O)O)cc1 [Methotrexate] | 12.3 DSS | 12.4 DSS | 27.7 DSS | 5.9 DSS | 0 DSS | 19.7 DSS
COC(=O)c1ccc([C@H]2c3[nH]c4ccccc4c3C[C@H](C(=O)OC)N2C(=O)CCl)cc1 [RSL3] | 0 DSS | 0 DSS | 0 DSS | 0 DSS | 0 DSS | 2.5 DSS

Reference: the supplement of paper PMC12420376
